Reference: patent publication US20020028851A1, “Guanylhydrazones and their use to treat inflammatory conditions” (priority 1994, published 2002)

Legend:
RAW 264.7 cells [1] = assay: Whole cell inhibition assay for arginine uptake; type: cell-based, murine; conditions: γIFN+LPS, 8 hours
Procedure: In the embodiment described in the working example herein, a test population of cells was cultured for about 3 hours so that the cells became firmly adherent. Various concentrations of the potential inhibitors were then added to parallel cultures. One hour later the macrophage stimulators, e.g. including, but not limited to LPS and γIFN, were added. Eighteen hours later the cells were washed in a warm balanced salt solution supplemented with glucose. Carrier-free radiolabelled arginine was added; after 5 minutes, active uptake of arginine was stopped by washing the cell three times with buffer, chilled to 0° C., containing 10 mM unlabeled arginine to displace any externally bound label. The contents of the washed cells are solubilized in 100 μl of formic acid and counted by standard techniques.
RAW 264.7 cells are plated in standard 96-well microculture plates at a concentration of 10^5/well and allowed to adhere for from 2 hours to overnight. The medium is then replaced with medium containing the compound to be tested. One hour later, the medium is supplemented so as to contain 25 U/ml γIFN and 0.1 μg/ml LPS and the cultures incubated a further. The cells are then rinsed twice in HEPES- buffered Krebs salt solution with 0.1% glucose. Carrier-free tetra-^3H-arginine is added to each well (2.5 μCi/well with specific activity of […]) and the active uptake of arginine is allowed to continue for a 5 minute period after which the cells are rapidly cooled to 0° C. by lavage with iced saline containing 10 mM unlabeled arginine to displace any externally bound label. The contents of the washed cells are solubilized in 100 Al of formic acid and counted by standard techniques. In subsequent experiments to determine the acitivity of the inhibitors, incubations were performed for 8 hours.
(§1) This section describes experiments that measure the concentration of Compound No. 14 needed to inhibit arginine uptake and NO output. The techniques employed were described in section 7.1 supra.

RAW 264.7 cells [2] = assay: Whole cell inhibition assay for urea output; type: cell-based, murine; conditions: for IC50: Mus musculus, RAW264.7, interpolated, γIFN+LPS-activated RAW 264.7, 18 hours, read-out: I.C.50 (in parenthesis), inhibition of urea production; for urea % suppression of induced production: γIFN+LPS, 18 hours
Procedure: (§2) RAW 264.7 cells are plated in microculture wells at 1×10^6/ml in RPMI 1640 with 10% FBS and otherwise standard culture conditions and allowed to adhere for 5 hours. They are then activated with 25 U/ml γIFN and 0.1 μg/ml LPS in the presence of test inhibitors. The urea concentration present in the supernatant media, after 18 hours of culture, is determined by a colorimetric blood urea nitrogen diacetylmonoxime assay performed on an aliquot of the culture supernatant (Sigma Chem. Co., St. Louis, Mo.) and inhibition is expressed as the percentage urea compared to that of a parallel control culture treated identically except that the concentration of added inhibitor is zero.
(§3) Various concentrations of the test compounds are included in the media of the stimulated RAW 264.7 cells in culture. The concentration of urea and/or nitrite after 18 hours of activated culture is determined and compared to the uninhibited control value obtained from at least one parallel culture. The fractional reduction is calculated for each concentration of inhibitor and the IC50 (concentration giving 50% reduction) is interpolated. Compounds were dissolved in media with mild heat (60° C.). Those with limited solubility were dissolved in base. The concentration of stock solutions of those compounds which were not completely soluble was determined by OD280.

[3] = Solubility on preparing test solutions; type: physicochemical; conditions: preparation of test solutions
Procedure: as §3

RAW 264.7 cells [4] = assay: Whole cell inhibition assay for NO (nitrite) output; type: cell-based, murine; conditions: γIFN+LPS, 18 hours
Procedure: as §2
The production of nitrite is determined by assay of the same tissue culture supernatant by means of a calorimetric assay. Briefly, 4 parts of test solution containing 1% (w/v) sulfanilamide, 0.1% naphthylethylenediamine di-HCl (Griess Reagent), 2.5% H3PO4 and one part media are mixed, incubated for 10 minutes and the absorbance at 560 nm determined. The nitrite concentrations are interpolated from reference curves prepared using NaNO2.
as §3, §1

TNF = TNF production by LPS/γIFN-stimulated RAW 264.7 cells; type: cell-based, murine; conditions: even at concentrations of 10 μM
Procedure: RAW 264.7 cells were plated in standard 6-well culture plates at a density of 10^6/well and allowed to adhere for from 2 hr to overnight. The medium was then replaced with medium containing the compound to be tested. One hour later, the medium was supplemented so as to contain 25 U/ml γIFN and 0.1 μg/ml LPS and the cultures incubated a further 18 hr. The medium was then collected, and cell debris removed by centrifugation. This conditioned supernatant was then assayed for the presence of TNF using standard methodologies: L929 cell cytotoxicity bioassay, radioimmunoassay or ELISA, and Western blotting with antibodies against murine TNF.

[5] = system: Endothelial Derived Relaxing Factor (EDRF) activity; assay: Acetylcholine-induced hypotensive (EDRF) response; type: in vivo, rats; conditions: 10 mg/Kg single intra-arterial dose; blood pressure 30 sec after ACh
Procedure: Female Sprague-Dawley rats (225-250 g body weight) were anesthetized with nembutal (50 mg/Kg, i.p.), a tracheostomy tube was inserted, and the carotid artery and jugular vein cannulated by standard methods using polyethylene tubing (PE 50). Tracey, K. J., et al., 1986, SCIENCE 234, 470-474. Blood pressure was recorded continuously with a pressure transducer and recorder (Model RS-3200, Gould Inc.,). In the experiment shown here, animals received a single sterile intra-arterial dose of either N^G-methyl-L-arginine (NMA; Sigma; 10 mg/Kg), Compound No. 14 (50 mg/Kg), or vehicle (0.4 ml). Acetylcholine (ACh) diluted in LPS-free sterile water was administered via the jugular vein cannula at the doses indicated. The solutions were diluted to produce a constant injectable volume of 1 ml/Kg body weight.
The hypotensive (EDRF) response was measured as the decline in mean arterial blood pressure recorded 30 sec after administration of ACh. The number of animals studied at each dose of acetylcholine was 4-6 for each experimental condition; data are expressed as the mean +s.e.m.

[6] = dose 23.3 (dose unit not given)

**Q.** Which “arginine transport % suppression of induced peak” value (“arginine transport % suppression” for short) (RAW 264.7 cells [1]; dose 5 μM) does the source give for `Cl.Cl.N=C(N)NN=Cc1cccc(OCCOc2cccc(C=NNC(=N)N)c2)c1` [Compound 16, 3,3′-(ethylenedioxy)dibenzaldehyde bis(amidinohydrazone) dihydrochloride] here?
**A.** Its value is 26%.

**Q.** What about the “arginine transport % suppression” value (RAW 264.7 cells [1]; dose 25 μM) of the same molecule?
**A.** The value was 44%.

**Q.** What about the “arginine transport % suppression” value (RAW 264.7 cells [1]; dose 250 μM) of the same molecule?
**A.** Its value is 100%.

**Q.** What about the IC50 (RAW 264.7 cells [2]) of the same molecule?
**A.** Its IC50 is 1 to 10 µM.

**Q.** And the “urea % suppression of induced production” value (RAW 264.7 cells [2]; dose 5 μM)?
**A.** The value was 40%.

**Q.** What about the “urea % suppression of induced production” value (RAW 264.7 cells [2]; dose 25 μM) of the same molecule?
**A.** The value was 100%.

**Q.** And the “urea % suppression of induced production” value (RAW 264.7 cells [2]; dose 250 μM)?
**A.** The value was 100%.

**Q.** And the “Dissolved in (solubility)” value [3]?
**A.** The value was “Not soluble;”.

**Q.** And the melting point?
**A.** The melting point was 264 to 266 °C.

**Q.** What about the “no2/no3 % suppression of induced production” value (“no2/no3 % suppression” for short) (RAW 264.7 cells [4]; dose 5 μM) of the same molecule?
**A.** Its value is 17%.

**Q.** And the “no2/no3 % suppression” value (RAW 264.7 cells [4]; dose 25 μM)?
**A.** Its value is 90%.

**Q.** And the “no2/no3 % suppression” value (RAW 264.7 cells [4]; dose 250 μM)?
**A.** Its value is 100%.

**Q.** What does the source list for `CNC(=N)NCCC[C@H](N)C(=O)O` [NMA, N^G-methyl-L-arginine, reference compound]?
**A.** inhibition of the production of TNF (TNF): did not inhibit; acetylcholine-induced EDRF activity in vivo [5]: inhibited

**Q.** For `COc1ccc(C=NNC(=N)N)cc1OCCCOc1cc(C=NNC(=N)N)ccc1OC.Cl.Cl` [Compound 18, 3,3′-(trimethylenedioxy)di-p-anisaldehyde bis(amidinohydrazone) dihydrochloride], which IC50 (RAW 264.7 cells [2]) is on record?
**A.** Its IC50 is 25 µM.

**Q.** And the “urea % suppression of induced production” value (RAW 264.7 cells [2]; dose 233 μM)?
**A.** Its value is 100%.

**Q.** And the “urea % suppression of induced production” value (RAW 264.7 cells [2]; dose 7.7 (dose unit not given))?
**A.** Its value is 9%.

**Q.** What about the “urea % suppression of induced production” value (RAW 264.7 cells [2]; [6]) of the same molecule?
**A.** Its value is 30%.

**Q.** And the “Dissolved in (solubility)” value [3]?
**A.** The value was “Not soluble”.

**Q.** What about the melting point of the same molecule?
**A.** Its melting point is 233 to 235 °C.

**Q.** And the “no2/no3 % suppression” value (RAW 264.7 cells [4]; dose 233 μM)?
**A.** The value was 100%.

**Q.** And the “no2/no3 % suppression” value (RAW 264.7 cells [4]; dose 7.7 (dose unit not given))?
**A.** Its value is 0%.

**Q.** What about the “no2/no3 % suppression” value (RAW 264.7 cells [4]; [6]) of the same molecule?
**A.** Its value is 13%.

**Q.** With `COc1cc(C=NNC(=N)N)ccc1OCCOc1ccc(C=NNC(=N)N)cc1OC.Cl.Cl` [Compound 17, 4,4′-(ethylenedioxy)di-m-anisaldehyde bis(amidinohydrazone) dihydrochloride] as the molecule, how does the IC50 (RAW 264.7 cells [2]) read?
**A.** The IC50 was 150 µM.

**Q.** What about the “urea % suppression of induced production” value (RAW 264.7 cells [2]; dose 177 μM) of the same molecule?
**A.** The value was 54-100%.

**Q.** What about the “Dissolved in (solubility)” value [3] of the same molecule?
**A.** Its value is “Not soluble”.

**Q.** And the melting point?
**A.** The melting point was 322 to 323 °C (dec.).

**Q.** And the “no2/no3 % suppression” value (RAW 264.7 cells [4]; dose 177 μM)?
**A.** Its value is 71-87%.
